± gives the expanded uncertainty stated by the source.
Legend:
[1] = 101.33 kPa, Liquid
[2] = refractive index (Na D-line) (dimensionless); conditions: 101.33 kPa, Liquid, Standard Abbe refractometry

| Compound | mass density ([1]; 293.15 K) | refractive index ([2]; 293.15 K) | mass density ([1]; 294 K) | refractive index ([2]; 292 K) | mass density ([1]; 288 K) |
| --- | --- | --- | --- | --- | --- |
| OCCO [1,2-ethanediol] | 1115.52 ± 0.71 kg/m3 | 1.43184 ± 0.0007 |  |  |  |
| CC(O)CO (configuration not stated) [1,2-propanediol] | 1032.83 ± 0.48 kg/m3 | 1.43143 ± 0.0007 |  |  |  |
| C=C(C)C1CC=C(C)CC1 (configuration not stated) [1-methyl-4-(1-methylethenyl)cyclohexene] |  |  | 840.24 ± 2.8 kg/m3 | 1.47247 ± 0.0009 |  |
| C=CC(C)(O)CCC=C(C)C (configuration not stated) [3,7-dimethyl-1,6-octadien-3-ol] |  | 1.46272 ± 0.0009 |  |  | 870.04 ± 2.7 kg/m3 |
| OCCOCCO [diethylene glycol] |  | 1.44724 ± 0.0007 |  |  | 1119.74 ± 0.72 kg/m3 |
| OCCOCCOCCO [triethylene glycol] |  | 1.45314 ± 0.0007 |  |  | 1127.43 ± 0.74 kg/m3 |

From the NIST ThermoML archive (doi:10.1021/je700577t)
